Holding throughout (set-up): species or system AML cell lines (8); Primary HTS, single concentration about 10 uM, Cell Titer Glo viability; log10 luminescence, per cent inhibition relative to cycloheximide control
Holding throughout (settings): 72 h, relative to cycloheximide control, log10 luminescence, inhibitor

For experiment [1], the system named is ML-2.
The test system of experiment [2] is CHRF288-11.
Experiment [3] has as its system M07e.
The test system of experiment [4] is MV4-11.
For experiment [5], the system named is U937.
In experiment [6] the test system is CMS.
The subject of experiment [7] is MOLM-13.
The subject of experiment [8] is CMK.

Where two headings read alike, the source gives them in different places.

Experimental findings from article PMC6522510 (Nature Communications, 2019) are described below.

With `CC(=O)[C@H]1CC[C@H]2[C@@H]3CC=C4C[C@@H](O)CC[C@]4(C)[C@H]3CC[C@]12C` [SJ000281777-6, PREGNENOLONE], the ML-2 %inh in experiment [1] is listed as 0.5574%. The CHRF288-11 %inh in experiment [2] was found to be 0.2511%. Also, in experiment [3], the M07e %inh was 1.706%. Further, the MV4-11 %inh in experiment [4] worked out at 6.672%. For the same compound, in experiment [5], the U937 %inh amounted to 3.219%. Besides, in experiment [6], the CMS %inh was found to be 6.885%. For the same compound, the MOLM-13 %inh in experiment [7] is listed as 2.085%. The CMK %inh in experiment [8] is recorded as -1.238%.

For the compound `O=C1NC(=N[C@@H](CO)Cc2ccccc2)S/C1=C\c1ccc2ncccc2c1` [SJ000581019-1], the ML-2 %inh in experiment [1] worked out at 8.345%. In experiment [2], the CHRF288-11 %inh is 42.52%. For the same compound, in experiment [3], the M07e %inh was 15.21%. The MV4-11 %inh in experiment [4] was 35.98%. Moreover, in experiment [5], the U937 %inh was determined as 18.33%. Moreover, the CMS %inh in experiment [6] amounted to 8.828%. The MOLM-13 %inh in experiment [7] came out at 62.37%. Besides, the CMK %inh in experiment [8] came out at 99.34%.

Regarding `C[C@H](CS)C(=O)N1CCC[C@H]1C(=O)O` [SJ000286908-7, CAPTOPRIL], the ML-2 %inh in experiment [1] (ML-2 %inh, 10 µM) is given as -0.2844%. Besides, in experiment [2] (CHRF288-11 %inh, 10 µM), the CHRF288-11 %inh amounted to 0.04975%. Further, the M07e %inh in experiment [3] (M07e %inh, 10 µM) turned out to be 3.365%. Moreover, the MV4-11 %inh in experiment [4] (MV4-11 %inh, 10 µM) was 2.877%. For the same compound, the U937 %inh in experiment [5] (U937 %inh, 10 µM) stood at 2.172%. For the same compound, in experiment [6] (CMS %inh, 10 µM), the CMS %inh amounted to 0.1894%. Moreover, the MOLM-13 %inh in experiment [7] (MOLM-13 %inh, 10 µM) stood at 2.932%. In addition, the CMK %inh in experiment [8] (CMK %inh, 10 µM) is recorded as -2.127%.

Consider `C=C(CC)C(=O)c1ccc(OCC(=O)O)c(Cl)c1Cl` [SJ000285761-4, ETHACRYNIC ACID], for which the ML-2 %inh in experiment [1] was determined as 6.312%. The CHRF288-11 %inh in experiment [2] turned out to be 13.52%. Further, the M07e %inh in experiment [3] is 4.659%. For the same compound, the MV4-11 %inh in experiment [4] was 1.71%. For the same compound, in experiment [5], the U937 %inh worked out at 4.395%. Moreover, the CMS %inh in experiment [6] was -0.1029%. In experiment [7], the MOLM-13 %inh was determined as 7.494%. In experiment [8], the CMK %inh is recorded as 27.12%.

As to `OCCCNc1nccc(-c2c(-c3ccc(F)cc3)nn3cc(C(F)(F)F)ccc23)n1` [SJ000573170-1, R5361/115/1], the ML-2 %inh in experiment [1] is on record as -1.781%. Further, in experiment [2], the CHRF288-11 %inh stood at 127.7%. Further, in experiment [3], the M07e %inh is on record as -1.662%. Besides, the MV4-11 %inh in experiment [4] is reported as -0.4985%. The U937 %inh in experiment [5] is on record as 1.034%. Besides, in experiment [6], the CMS %inh was found to be 105.9%. In experiment [7], the MOLM-13 %inh is given as -2.069%. Moreover, in experiment [8], the CMK %inh stood at 125%.

As to `C[C@]12CCC(=O)C=C1CC[C@@H]1[C@@H]2C(=O)C[C@@]2(C)[C@H]1CC[C@]2(O)C(=O)CO` [SJ000287023-7, CORTISONE], the ML-2 %inh in experiment [1] was -0.1775%. In addition, in experiment [2], the CHRF288-11 %inh turned out to be 8.551%. In experiment [3], the M07e %inh is listed as -0.4313%. Moreover, the MV4-11 %inh in experiment [4] was -0.1807%. The U937 %inh in experiment [5] is reported as -1.735%. The CMS %inh in experiment [6] was -0.2521%. For the same compound, the MOLM-13 %inh in experiment [7] was -2.413%. In addition, in experiment [8], the CMK %inh is -2.132%.

Regarding `O=c1c(Oc2ccc(F)cc2F)cc2cnc(NC3CCOCC3)nc2n1CCCO` [SJ000580962-1], the ML-2 %inh in experiment [1] stood at 1.08%. The CHRF288-11 %inh in experiment [2] is given as 3.259%. The M07e %inh in experiment [3] is given as -0.6973%. In experiment [4], the MV4-11 %inh is on record as 3.176%. In addition, the U937 %inh in experiment [5] is listed as 2.637%. In addition, the CMS %inh in experiment [6] came out at 2.142%. In experiment [7], the MOLM-13 %inh amounted to 0.8881%. In addition, the CMK %inh in experiment [8] is 6.717%.

For the compound `COc1cccc(-n2ncc3c(N/N=C/c4cccc(F)c4)ncnc32)c1` [SJ000573217-1, U18028/186/1], the ML-2 %inh in experiment [1] came to 0.8639%. The CHRF288-11 %inh in experiment [2] is listed as -0.7991%. In addition, in experiment [3], the M07e %inh is on record as -2.637%. The MV4-11 %inh in experiment [4] is on record as -3.164%. Also, the U937 %inh in experiment [5] was -3.323%. Also, in experiment [6], the CMS %inh stood at 0.08051%. For the same compound, the MOLM-13 %inh in experiment [7] is -3.305%. In addition, in experiment [8], the CMK %inh was -7.034%.

Take `N#CC[C@H](C1CCCC1)n1cc(-c2ncnc3[nH]ccc23)cn1` [SJ000574296-1, RUXOLITINIB | INCB-18424 | INCB-018424 | NCB018424 | INC-424 | INCB-424 | RUXOLITINIB | INCB-18424 | INCB-018424 | NCB018424 | INC-424 | INCB-424 | | RUXOLITINIB (INCB018424) | S-RUXOLITINIB (INCB018424)]: the ML-2 %inh in experiment [1] is listed as 4.441%. In experiment [2], the CHRF288-11 %inh was 79.68%. For the same compound, in experiment [3], the M07e %inh came out at 44.64%. The MV4-11 %inh in experiment [4] is on record as 11.92%. In addition, the U937 %inh in experiment [5] came to 33.85%. Moreover, the CMS %inh in experiment [6] came out at 86.42%. Further, the MOLM-13 %inh in experiment [7] was determined as 27.41%. Also, the CMK %inh in experiment [8] is recorded as 85.02%.

For the compound `COc1ccc2cc(-c3c(-c4ccncc4)nc(-c4ccc([S+](C)[O-])cc4C)n3C)ccc2c1` (centres unmarked) [SJ000573248-1, NJ44157-082A1], the ML-2 %inh in experiment [1] turned out to be 0.217%. Moreover, in experiment [2], the CHRF288-11 %inh worked out at 5.983%. The M07e %inh in experiment [3] was 7.477%. In experiment [4], the MV4-11 %inh was 7.703%. Also, the U937 %inh in experiment [5] is reported as 1.089%. Moreover, the CMS %inh in experiment [6] stood at 2.672%. Further, in experiment [7], the MOLM-13 %inh turned out to be 2.934%. For the same compound, the CMK %inh in experiment [8] was 1.35%.

On to `COC(=O)c1cncc(/C=C/c2c(C)cc(O)cc2C)c1` [SJ000573206-1, U12614/140/1], for which the ML-2 %inh in experiment [1] was determined as 4.986%. Besides, the CHRF288-11 %inh in experiment [2] was found to be 31.61%. Further, the M07e %inh in experiment [3] is reported as 18.22%. Besides, the MV4-11 %inh in experiment [4] stood at 6.215%. In addition, the U937 %inh in experiment [5] came to 23.01%. In addition, the CMS %inh in experiment [6] turned out to be 1.868%. The MOLM-13 %inh in experiment [7] came to 1.326%. In addition, in experiment [8], the CMK %inh was determined as 80.78%.

In the case of `O=C1NC(=NCc2ccccn2)S/C1=C\c1ccc2ncccc2c1` [SJ000581006-1], in experiment [1], the ML-2 %inh was -0.04041%. In addition, the CHRF288-11 %inh in experiment [2] is listed as -1.509%. Besides, the M07e %inh in experiment [3] is 3.262%. For the same compound, the MV4-11 %inh in experiment [4] was determined as 1.986%. The U937 %inh in experiment [5] is reported as 2.876%. Further, in experiment [6], the CMS %inh is -0.1401%. Besides, the MOLM-13 %inh in experiment [7] was 6.642%. For the same compound, the CMK %inh in experiment [8] stood at 2.326%.

Regarding `CNCC1CCn2c(c(C3=C(c4cn(C)c5ccccc45)C(=O)NC3=O)c3ccccc32)C1` (centres unmarked) [SJ000581026-1], in experiment [1], the ML-2 %inh is on record as 5.596%. In addition, the CHRF288-11 %inh in experiment [2] is given as 5.735%. Besides, in experiment [3], the M07e %inh worked out at 4.053%. For the same compound, the MV4-11 %inh in experiment [4] was 3.218%. In addition, the U937 %inh in experiment [5] stood at 3.941%. The CMS %inh in experiment [6] came out at 2.453%. Also, the MOLM-13 %inh in experiment [7] worked out at 5.409%. Further, the CMK %inh in experiment [8] was 19.67%.

Regarding `Nc1ncnc2occ(-c3ccc(NC(=O)Nc4cc(C(F)(F)F)ccc4F)cc3)c12` [SJ000573048-1, CL210513-029A3 | T299/89/1 | YF46626-103A2], in experiment [1] (ML-2 %inh, 10 µM), the ML-2 %inh was found to be 1.043%. In experiment [2] (CHRF288-11 %inh, 10 µM), the CHRF288-11 %inh was found to be 26.14%. In experiment [3] (M07e %inh, 10 µM), the M07e %inh is reported as 14.83%. Besides, in experiment [4] (MV4-11 %inh, 10 µM), the MV4-11 %inh is listed as 68.76%. For the same compound, the U937 %inh in experiment [5] (U937 %inh, 10 µM) was determined as 17.4%. Moreover, in experiment [6] (CMS %inh, 10 µM), the CMS %inh is 8.741%. Moreover, in experiment [7] (MOLM-13 %inh, 10 µM), the MOLM-13 %inh was determined as 82.99%. In experiment [8] (CMK %inh, 10 µM), the CMK %inh was determined as 31.71%.

`O=C1Nc2ccc(I)cc2C1=Cc1cc(Br)c(O)c(Br)c1` [SJ000287883-4, GW 5074 | GW5074 | RAF1 KINASE INHIBITOR I | U7401/61/2 | GW5074]: the ML-2 %inh in experiment [1] is -0.3991%. Moreover, in experiment [2], the CHRF288-11 %inh amounted to 7.111%. In addition, the M07e %inh in experiment [3] stood at 1.287%. In experiment [4], the MV4-11 %inh is 1.335%. The U937 %inh in experiment [5] was 2.224%. Also, in experiment [6], the CMS %inh was 1.257%. For the same compound, the MOLM-13 %inh in experiment [7] was 3.135%. Also, the CMK %inh in experiment [8] is 3.747%.

On to `CCCC[C@@H](C=O)NC(=O)[C@H](CC(C)C)NC(=O)OCc1ccccc1` [SJ000755074-2, CALPEPTIN], for which, in experiment [1] (ML-2 %inh, 10 µM), the ML-2 %inh is 0.3376%. The CHRF288-11 %inh in experiment [2] (CHRF288-11 %inh, 10 µM) is recorded as 27.98%. Also, the M07e %inh in experiment [3] (M07e %inh, 10 µM) turned out to be 2.133%. Also, in experiment [4] (MV4-11 %inh, 10 µM), the MV4-11 %inh is 8.208%. In experiment [5] (U937 %inh, 10 µM), the U937 %inh is 3.349%. Also, the CMS %inh in experiment [6] (CMS %inh, 10 µM) is 2.144%. For the same compound, in experiment [7] (MOLM-13 %inh, 10 µM), the MOLM-13 %inh was determined as 5.31%. In experiment [8] (CMK %inh, 10 µM), the CMK %inh is given as -0.8705%.
